Measurements as given in publication PMC8480759, “Inhibitors of histone deacetylase 6 based on a novel 3-hydroxy-isoxazole zinc binding group” (Journal of Enzyme Inhibition and Medicinal Chemistry, 2021).

Tests used:
DU145 cells = test: Anti-proliferative assay (MTT cell viability); type: cell-based, human; conditions: for effect on proliferation rate of DU145 cells: 50 µM, MTT, 24, 48, 72 h; for anti-proliferative activity at the lowest concentrations: DU145, late phases, lowest concentrations (tested 1, 5, 10, 50 µM)
Description: The results corroborate the inhibitory activity of 17, 23, 25 and 27 at concentrations lower than 10 µM. […] HDACs contribution to CRPC is known[20] and the possibility to arrest CRPC proliferation by acting on HDAC targets is expanding in the scientific literature[21]^,[22]. After administration of the selected compounds for 24 h at 10 µM concentration, the effect on the acetylation levels of histone H3 and α-tubulin (respectively, HDAC1 and HDAC6 targets) was investigated. […] Lastly, in the same cell line, the anti-proliferative effect was measured in dose and time dependent manner (Figure S4).
Figure S4. Cell viability assay (MTT) of the tested compounds in human prostate cancer cell lines (DU145). Cells were treated with 4 increasing concentrations (1, 5, 10, and 50 µM) of tested compounds, monitored at 24, 48, and 72 hours and tested with SAHA and Tubastatin A as reference compounds. Data are expressed as mean ± SEM. […]
1.5 Anti-proliferative assay
Cell viability was determined on DU145 cell line using Thiazolyl Blue Tetrazolium Bromide [3-(4,5-dimethylthiazol-2-yl)-2,5-diphenyltetrazolium bromide] (MTT; Sigma-Aldrich) assay after treatment with new compounds at indicated concentrations. A total of 2 × 10^4 cells/well were plated in a 96-well plate and treated, in duplicates, with new compounds at different concentrations for 24, 48, and 72 hours. Absorbance was read at a wavelength of 570 nm with a TECAN M-200 reader (Tecan, Männedorf, Switzerland).

HDAC6 [1] = biological target: T1, HDAC6 (Homo sapiens, UniProt Q9UBN7); test: In vitro HDAC6 fluorogenic enzymatic assay; type: biochemical; set-up: purchased BPS Bioscience #50076 (Fluorogenic Assay Kit); conditions: recombinant human HDAC6; dose-response 300 µM to 135 nM
T1 sequence (Q9UBN7 1-1215): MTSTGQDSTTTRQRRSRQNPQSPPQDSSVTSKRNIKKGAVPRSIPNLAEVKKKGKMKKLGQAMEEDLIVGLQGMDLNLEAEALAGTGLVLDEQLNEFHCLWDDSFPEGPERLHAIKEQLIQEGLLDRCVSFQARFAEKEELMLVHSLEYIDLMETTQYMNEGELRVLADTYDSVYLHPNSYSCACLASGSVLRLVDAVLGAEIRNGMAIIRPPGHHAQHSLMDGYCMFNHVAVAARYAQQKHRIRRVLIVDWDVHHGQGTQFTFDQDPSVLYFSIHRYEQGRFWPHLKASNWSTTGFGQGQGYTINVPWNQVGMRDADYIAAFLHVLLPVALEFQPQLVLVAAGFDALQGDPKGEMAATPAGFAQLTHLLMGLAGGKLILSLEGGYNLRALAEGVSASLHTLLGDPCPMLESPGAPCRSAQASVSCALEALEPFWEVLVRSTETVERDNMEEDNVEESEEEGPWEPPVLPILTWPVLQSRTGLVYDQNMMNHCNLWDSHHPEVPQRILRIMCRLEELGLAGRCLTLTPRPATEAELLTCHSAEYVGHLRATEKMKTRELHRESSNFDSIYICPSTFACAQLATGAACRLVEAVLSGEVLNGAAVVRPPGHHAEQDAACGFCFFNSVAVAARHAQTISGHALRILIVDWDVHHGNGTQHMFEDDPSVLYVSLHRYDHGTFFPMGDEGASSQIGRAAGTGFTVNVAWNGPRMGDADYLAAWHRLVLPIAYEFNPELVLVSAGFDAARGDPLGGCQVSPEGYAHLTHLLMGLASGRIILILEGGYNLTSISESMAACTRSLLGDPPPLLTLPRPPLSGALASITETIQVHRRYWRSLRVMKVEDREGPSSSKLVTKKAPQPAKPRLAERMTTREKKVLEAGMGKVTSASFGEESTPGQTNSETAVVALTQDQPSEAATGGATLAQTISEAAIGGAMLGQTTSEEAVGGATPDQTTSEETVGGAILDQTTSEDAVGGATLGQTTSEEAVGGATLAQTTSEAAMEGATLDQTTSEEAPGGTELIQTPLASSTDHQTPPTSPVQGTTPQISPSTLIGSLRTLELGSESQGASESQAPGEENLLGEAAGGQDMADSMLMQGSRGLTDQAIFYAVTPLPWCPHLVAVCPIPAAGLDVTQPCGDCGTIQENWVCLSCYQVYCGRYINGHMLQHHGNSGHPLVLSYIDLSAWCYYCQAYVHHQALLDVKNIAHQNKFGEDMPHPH

HDAC6 [2] = biological target: T1, HDAC6; test: HDAC6 assay with acetylated p53 peptide (residues 379–382, RHKKAc-AMC) as substrate; type: biochemical

| IC50 (HDAC6 [1]) | concentration showing inhibitory activity on HDAC6 (HDAC6 [2]) | Structure (SMILES) | effect on proliferation rate of DU145 cells (DU145 cells) | anti-proliferative activity at the lowest concentrations (DU145 cells) |
| --- | --- | --- | --- | --- |
| 700 nM | below 10 µM | Oc1cc(-c2ccc(NCc3ccccc3)cc2)on1 [Compound 23] | reduced the proliferation rate | exerted anti-proliferative activity |
| 1500 nM | below 10 µM | Oc1cc(-c2ccc3c(c2)OCO3)on1 [Compound 25] | reduced the proliferation rate | exerted anti-proliferative activity |
